Tests used:
[1] = target: T1, human A1 receptor subtype (Homo sapiens, UniProt P30542)
T1 sequence (P30542 1-326): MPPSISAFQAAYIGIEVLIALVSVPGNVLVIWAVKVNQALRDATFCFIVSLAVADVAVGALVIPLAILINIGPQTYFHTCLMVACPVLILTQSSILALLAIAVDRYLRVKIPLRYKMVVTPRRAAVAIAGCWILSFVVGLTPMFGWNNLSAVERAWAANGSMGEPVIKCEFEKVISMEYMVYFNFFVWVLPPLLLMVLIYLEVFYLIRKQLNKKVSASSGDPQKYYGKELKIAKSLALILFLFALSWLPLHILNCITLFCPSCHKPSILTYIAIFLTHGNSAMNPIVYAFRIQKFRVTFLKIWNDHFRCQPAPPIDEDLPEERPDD

[2] = target: T2, human A1 adenosine receptor (Homo sapiens, UniProt P30542); settings: cited from earlier work
T2 sequence (P30542 1-326): T1 sequence (P30542 1-326)

[3] = target: T3, human A2a receptor subtype (Homo sapiens, UniProt P29274); test: Adenosine 2a receptor subtype competition radioligand binding ([3H]CGS-21680, HEK293 membranes); settings: Table 13; % activity @ 10 μM (footnote 8)
T3 construct: expressed in transfected cells; host or cells: HEK-293 (Cadus clone #5)
T3 sequence (P29274 whole entry): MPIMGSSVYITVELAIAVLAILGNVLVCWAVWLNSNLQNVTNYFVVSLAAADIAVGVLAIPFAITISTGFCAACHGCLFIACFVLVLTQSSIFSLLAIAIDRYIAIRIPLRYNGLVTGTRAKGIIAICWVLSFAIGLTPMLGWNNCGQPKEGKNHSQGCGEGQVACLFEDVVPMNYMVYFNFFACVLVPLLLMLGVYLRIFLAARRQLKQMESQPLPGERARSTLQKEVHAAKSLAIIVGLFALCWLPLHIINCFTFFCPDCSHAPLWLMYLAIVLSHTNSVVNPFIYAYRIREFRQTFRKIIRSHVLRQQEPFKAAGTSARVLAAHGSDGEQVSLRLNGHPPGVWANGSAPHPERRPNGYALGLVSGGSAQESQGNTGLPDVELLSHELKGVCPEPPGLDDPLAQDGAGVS

[4] = target: T4, human A3 receptor subtype (Homo sapiens, UniProt P0DMS8); test: Adenosine 3 receptor competition radioligand binding ([125I]AB-MECA, HEK293 membranes); settings: Table 13; % activity @ 10 μM (footnote 8)
T4 construct: expressed in transfected cells; host or cells: HEK293
T4 sequence (P0DMS8 1-318): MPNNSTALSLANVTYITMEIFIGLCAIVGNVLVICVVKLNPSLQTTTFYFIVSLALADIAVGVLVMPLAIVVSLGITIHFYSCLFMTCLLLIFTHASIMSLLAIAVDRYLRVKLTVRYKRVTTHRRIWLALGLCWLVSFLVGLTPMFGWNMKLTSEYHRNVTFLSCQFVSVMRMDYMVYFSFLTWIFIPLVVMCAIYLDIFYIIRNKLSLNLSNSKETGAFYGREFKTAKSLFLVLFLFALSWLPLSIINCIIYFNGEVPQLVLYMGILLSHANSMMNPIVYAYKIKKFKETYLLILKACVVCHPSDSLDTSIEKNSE

Row | melting point | Structure (SMILES) | other results
1 | 268 to 271 °C | NC(=O)[C@@H]1C[C@H](O)CN1c1nc(-c2ccccc2)nc2[nH]ccc12 [Compound 1606, 4-Hydroxy-1-(2-phenyl-7H-pyrrolo[2,3-d]pyrimidin-4-yl]-pyrrolidine-2-carboxylic Acid Amide] | –
2 | – | O[C@H]1CC[C@H](Nc2nc(-c3ccccc3)nc3[nH]c(CN4CCOCC4)cc23)CC1 [Compound 1503] | Ki-A1 (selectivity versus A2a, A2b, A3) ([1]; Table 15): * (at least 10 times more selective than other three subtypes)
3 | 220 °C (dec.) | NC(=O)C1CCCN1c1nc(-c2ccccc2)nc2[nH]c(C(=O)O)cc12 (stereo not shown) [Compound 1619, [4-(2-Carbamoylpyrrolidin-1-yl)-2-phenyl-7H-pyrrolo[2,3-d]pyrimidine-6-carboxylic Acid]] | –
4 | – | CC(Cc1ccccc1)Nc1ncnc2c1ncn2[C@@H]1O[C@H](CO)[C@@H](O)[C@H]1O (single isomer, unassigned; (-)) [PIA, (−)-N6-(2-phenylisopropyl)-adenosine] | reported affinity [2]: approximately 50 nM
5 | – | Cc1[nH]c2nc(-c3ccccc3)nc(NCCNC(=O)C3(N)CC3)c2c1C [Compound 1313] | A2a binding, % activity [3]: 65%; A1 binding, % activity ([1]; Table 13, % activity @ 10 μM (footnote 8)): 30%
6 | – | CNC(=O)NCCCNc1nc(-c2ccccc2)nc2[nH]c(C)c(C)c12 [Compound 1310] | A2a binding, % activity [3]: 76%
7 | 210 to 220 °C (dec.) | NC(=O)c1cc2c(NC3CCC(O)CC3)nc(-c3ccccc3)nc2[nH]1 (stereo not shown) [Compound 1630, 4-(4-Hydroxy-cyclohexylamino)-2-phenyl-7H-pyrrolo[2,3-d]pyrimidine-6-carboxylic Acid Amide] | –
8 | 213 to 215 °C | COCc1cc2c(N3CCCC3C(N)=O)nc(-c3ccccc3)nc2[nH]1 (stereo not shown) [Compound 1605] | –
9 | 196 to 197 °C | CC(=O)NCCNc1nc(-c2ccccc2)nc2[nH]c(COc3ccccc3)cc12 [Example 17] | –
10 | – | O[C@H]1CC[C@H](Nc2nc(-c3ccncc3)nc3[nH]ccc23)CC1 [Compound 1321] | A3 binding, % activity [4]: 54%^8
11 | 236 to 238 °C | NC(=O)[C@@H]1CCCN1c1nc(-c2ccccc2)nc2[nH]ccc12 [Compound 1602] | –
12 | 225 to 227 °C | COC(=O)c1cc2c(NC3CCC(O)CC3)nc(-c3ccccc3)nc2[nH]1 (stereo not shown) [Compound 1627, 4-(4-Hydroxy-cyclohexylamino)-2-phenyl-7H-pyrrolo[2,3-d]pyrimidine-6-carboxylic Acid Methyl Ester] | –
